What was measured:
Assay type in all cases: in vivo
[1] = tested on: Echinochloa crus-galli (ECHCG); assay: Glasshouse herbicidal test, pre- and post-emergence, Echinochloa crus-galli; details: 250 g/h, evaluated after 13 days, five point scale; for percentage damage caused to the plant, ECHCG POST: post-emergence; for percentage damage caused to the plant, ECHCG PRE: pre-emergence
Experimental: (§1) Seeds of a variety of test species are sown in standard soil in pots (Lolium perenne (LOLPE), Setaria faberi (SETFA), Alopecurus myosuroides (ALOMY), Echinochloa crus-galli (ECHCG), Avena fatua (AVEFA)). After cultivation for one day (pre-emergence) or after 8 days cultivation (post-emergence) under controlled conditions in a glasshouse (at 24/16° C., day/night; 14 hours light; 65% humidity), the plants are sprayed with an aqueous spray solution derived from the formulation of the technical active ingredient in acetone/water (50:50) solution containing 0.5% Tween 20 (polyoxyethelyene sorbitan monolaurate, CAS RN 9005-64-5). Compounds are applied at […]. The test plants are then grown in a glasshouse under controlled conditions in a glasshouse (at 24/16° C., day/night; 14 hours light; 65% humidity) and watered twice daily. After 13 days for pre and post-emergence, the test is evaluated for the percentage damage caused to the plant. The biological activities are shown in the following table on a five point scale (5=80-100%; 4=60-79%; 3=40-59%; 2=20-39%; 1=0-19%).

[2] = tested on: Setaria faberi (SETFA); assay: Glasshouse herbicidal test, pre- and post-emergence, Setaria faberi; details: 250 g/h, evaluated after 13 days, five point scale; for percentage damage caused to the plant, SETFA POST: post-emergence; for percentage damage caused to the plant, SETFA PRE: pre-emergence
Experimental: as §1

[3] = tested on: Lolium perenne (LOLPE); assay: Glasshouse herbicidal test, pre- and post-emergence, Lolium perenne; details: 250 g/h, evaluated after 13 days, five point scale; for percentage damage caused to the plant, LOLPE POST: post-emergence; for percentage damage caused to the plant, LOLPE PRE: pre-emergence
Experimental: as §1

[4] = tested on: Alopecurus myosuroides (ALOMY); assay: Glasshouse herbicidal test, pre- and post-emergence, Alopecurus myosuroides; details: 250 g/h, evaluated after 13 days, five point scale; for percentage damage caused to the plant, ALOMY POST: post-emergence; for percentage damage caused to the plant, ALOMY PRE: pre-emergence
Experimental: as §1

[5] = tested on: Avena fatua (AVEFA); assay: Glasshouse herbicidal test, pre- and post-emergence, Avena fatua; details: 250 g/h, evaluated after 13 days, five point scale; for percentage damage caused to the plant, AVEFA POST: post-emergence; for percentage damage caused to the plant, AVEFA PRE: pre-emergence
Experimental: as §1

CC#Cc1cc(C)c(C2C(=O)CC3(CCN(C(=O)C(F)F)CC3)CC2=O)c(C)c1 [Compound A6]
5 (5=80-100%): percentage damage caused to the plant, ECHCG POST [1] | percentage damage caused to the plant, ECHCG PRE [1] | percentage damage caused to the plant, SETFA POST [2] | percentage damage caused to the plant, SETFA PRE [2] | percentage damage caused to the plant, LOLPE POST [3] | percentage damage caused to the plant, LOLPE PRE [3] | percentage damage caused to the plant, ALOMY POST [4] | percentage damage caused to the plant, ALOMY PRE [4] | percentage damage caused to the plant, AVEFA POST [5] | percentage damage caused to the plant, AVEFA PRE [5]

CC#Cc1cc(C)c(C2C(=O)CC3(CCN(C(=O)C(F)(F)C(F)(F)F)CC3)CC2=O)c(C)c1 [Compound A26]
5 (5=80-100%): percentage damage caused to the plant, ECHCG POST [1] | percentage damage caused to the plant, ECHCG PRE [1] | percentage damage caused to the plant, SETFA POST [2] | percentage damage caused to the plant, SETFA PRE [2] | percentage damage caused to the plant, LOLPE POST [3] | percentage damage caused to the plant, LOLPE PRE [3] | percentage damage caused to the plant, ALOMY POST [4] | percentage damage caused to the plant, ALOMY PRE [4] | percentage damage caused to the plant, AVEFA POST [5] | percentage damage caused to the plant, AVEFA PRE [5]

CC#Cc1cc(C)c(C2=C(OC(=O)OC)CC3(CCN(C(C)=O)CC3)CC2=O)c(OC)c1 [Compound P18]
5 (5=80-100%): percentage damage caused to the plant, ECHCG PRE [1] | percentage damage caused to the plant, SETFA POST [2] | percentage damage caused to the plant, SETFA PRE [2] | percentage damage caused to the plant, LOLPE POST [3] | percentage damage caused to the plant, LOLPE PRE [3] | percentage damage caused to the plant, ALOMY POST [4] | percentage damage caused to the plant, ALOMY PRE [4] | percentage damage caused to the plant, AVEFA POST [5] | percentage damage caused to the plant, AVEFA PRE [5]

CC#Cc1cc(C)c(C2C(=O)CC3(CCN(C(=O)C(C)(C)C)CC3)CC2=O)c(OC)c1 [Compound A20]
5 (5=80-100%): percentage damage caused to the plant, ECHCG POST [1] | percentage damage caused to the plant, ECHCG PRE [1] | percentage damage caused to the plant, SETFA POST [2] | percentage damage caused to the plant, SETFA PRE [2] | percentage damage caused to the plant, LOLPE POST [3] | percentage damage caused to the plant, LOLPE PRE [3] | percentage damage caused to the plant, ALOMY POST [4] | percentage damage caused to the plant, ALOMY PRE [4] | percentage damage caused to the plant, AVEFA POST [5] | percentage damage caused to the plant, AVEFA PRE [5]

CC#Cc1cc(C)c(C2C(=O)CC3(CCN(C(=O)C(C)(F)F)CC3)CC2=O)c(C)c1 [Compound A22]
5 (5=80-100%): percentage damage caused to the plant, ECHCG POST [1] | percentage damage caused to the plant, ECHCG PRE [1] | percentage damage caused to the plant, SETFA POST [2] | percentage damage caused to the plant, SETFA PRE [2] | percentage damage caused to the plant, LOLPE POST [3] | percentage damage caused to the plant, LOLPE PRE [3] | percentage damage caused to the plant, ALOMY POST [4] | percentage damage caused to the plant, ALOMY PRE [4] | percentage damage caused to the plant, AVEFA POST [5] | percentage damage caused to the plant, AVEFA PRE [5]

CC#Cc1cc(C)c(C2C(=O)CC3(CCN(C(=O)C(F)F)CC3)CC2=O)c(OC)c1 [Compound A19]
5 (5=80-100%): percentage damage caused to the plant, ECHCG PRE [1] | percentage damage caused to the plant, SETFA POST [2] | percentage damage caused to the plant, SETFA PRE [2] | percentage damage caused to the plant, LOLPE POST [3] | percentage damage caused to the plant, LOLPE PRE [3] | percentage damage caused to the plant, ALOMY POST [4] | percentage damage caused to the plant, ALOMY PRE [4] | percentage damage caused to the plant, AVEFA POST [5] | percentage damage caused to the plant, AVEFA PRE [5]

CC#Cc1cc(C)c(C2C(=O)CC3(CCN(OC)CC3)CC2=O)c(C)c1 [Compound A8]
5 (5=80-100%): percentage damage caused to the plant, ECHCG POST [1] | percentage damage caused to the plant, ECHCG PRE [1] | percentage damage caused to the plant, SETFA POST [2] | percentage damage caused to the plant, SETFA PRE [2] | percentage damage caused to the plant, LOLPE POST [3] | percentage damage caused to the plant, LOLPE PRE [3] | percentage damage caused to the plant, ALOMY POST [4] | percentage damage caused to the plant, ALOMY PRE [4] | percentage damage caused to the plant, AVEFA POST [5] | percentage damage caused to the plant, AVEFA PRE [5]

CC#Cc1cc(C)c(C2=C(OC(=O)C(C)C)CC3(CCN(C(C)=O)CC3)CC2=O)c(C)c1 [Compound P12]
5 (5=80-100%): percentage damage caused to the plant, ECHCG POST [1] | percentage damage caused to the plant, ECHCG PRE [1] | percentage damage caused to the plant, SETFA POST [2] | percentage damage caused to the plant, SETFA PRE [2] | percentage damage caused to the plant, LOLPE POST [3] | percentage damage caused to the plant, LOLPE PRE [3] | percentage damage caused to the plant, ALOMY POST [4] | percentage damage caused to the plant, ALOMY PRE [4] | percentage damage caused to the plant, AVEFA POST [5] | percentage damage caused to the plant, AVEFA PRE [5]

CC#Cc1cc(C)c(C2=C(OC(=O)SC(C)C)CC3(CCN(C(C)=O)CC3)CC2=O)c(C)c1 [Compound P14]
5 (5=80-100%): percentage damage caused to the plant, ECHCG POST [1] | percentage damage caused to the plant, ECHCG PRE [1] | percentage damage caused to the plant, SETFA POST [2] | percentage damage caused to the plant, SETFA PRE [2] | percentage damage caused to the plant, LOLPE POST [3] | percentage damage caused to the plant, LOLPE PRE [3] | percentage damage caused to the plant, ALOMY POST [4] | percentage damage caused to the plant, ALOMY PRE [4] | percentage damage caused to the plant, AVEFA POST [5] | percentage damage caused to the plant, AVEFA PRE [5]

CC#Cc1cc(C)c(C2=C(OC(=O)C(C)(C)C)CC3(CCN(OC)CC3)CC2=O)c(C)c1 [Compound P1]
5 (5=80-100%): percentage damage caused to the plant, ECHCG POST [1] | percentage damage caused to the plant, ECHCG PRE [1] | percentage damage caused to the plant, SETFA POST [2] | percentage damage caused to the plant, SETFA PRE [2] | percentage damage caused to the plant, LOLPE POST [3] | percentage damage caused to the plant, LOLPE PRE [3] | percentage damage caused to the plant, ALOMY POST [4] | percentage damage caused to the plant, ALOMY PRE [4] | percentage damage caused to the plant, AVEFA POST [5] | percentage damage caused to the plant, AVEFA PRE [5]

CC#Cc1cc(C)c(C2C(=O)CC3(CCN(CC(F)(F)F)CC3)CC2=O)c(C)c1 [Compound A7]
5 (5=80-100%): percentage damage caused to the plant, ECHCG POST [1] | percentage damage caused to the plant, ECHCG PRE [1] | percentage damage caused to the plant, SETFA POST [2] | percentage damage caused to the plant, SETFA PRE [2] | percentage damage caused to the plant, LOLPE POST [3] | percentage damage caused to the plant, LOLPE PRE [3] | percentage damage caused to the plant, ALOMY POST [4] | percentage damage caused to the plant, ALOMY PRE [4] | percentage damage caused to the plant, AVEFA POST [5] | percentage damage caused to the plant, AVEFA PRE [5]

Source: patent US11542235B2, “Herbicidal 3-azaspiro[5.5] undecane-8, 10-dione compounds” (SYNGENTA PARTICIPATIONS AG, priority 2018, dated 2023)
